# Patent US11236045B2, “Substituted sulfoximine compounds” (CADILA HEALTHCARE LIMITED, priority 2017, dated 2022)
# Tested on: IL-1β
# Assay: In vitro IL-1β inhibition in PMA-differentiated, LPS-primed, ATP-stimulated THP1 cells
# Format: cell-based
# Settings: Homo sapiens, THP-1; THP1 monocytes differentiated with PMA, primed with 500 ng/ml LPS 4 hrs, compound 30 min, 5 mM ATP 1 hr; IL-1b in supernatant; read-out: in vitro IL-1β inhibitory activity IC50
# Protocol: THP1 ([…]) monocytes were differentiated with PMA (Phorbol 12-myristate 13-acetate) (100 ng/ml) and incubated at 37° C. for 20 h in presence of 5% CO2. 2×10^5 differentiated cells were plated per well of 96 well tissue culture plates. The cells were primed using 500 ng/ml Lipopolysaccharide and incubating for 4 hrs under the same condition. The cells were then treated with various concentrations of the compounds for 30 min followed by treatment with 5 mM ATP for 1 hr. The supernatants were collected and analysed by IL-1b (Mabtech Cat #3415-1H-20) or TNF-a (Mabtech; Cat #3510-1H-20) detection kit. The data were analyzed using GraphPad Prism V7.0. Dose Response Curve (DRC) was constructed to determine the IC50 value by fitting percentage cell survival data to the GraphPad Prism using nonlinear regression analysis.
row,Structure (SMILES),IC50
1,"N#CN=S(=O)(NC(=O)Nc1c2c(cc3c1CCC3)CCC2)c1ccc(Br)cc1 (centres unmarked) [Example 27, 4-bromo-N′-cyano-N-((1,2,3,5,6,7-hexahydro-s-indacen-4-yl)carbamoyl)benzenesulfonimidamide]",27 nM
2,"CC(C)(O)c1cc(S(=O)(=NC#N)NC(=O)Nc2c3c(cc4c2CCC4)CCC3)ccc1F (centres unmarked) [Example 63, N′-cyano-4-fluoro-N-((1,2,3,5,6,7-hexahydro-s-indacen-4-yl)carbamoyl)-3-(2-hydroxypropan-2-yl)benzenesulfonimidamide]",7.8 nM
3,"COc1ccc(S(=O)(=NC#N)NC(=O)Nc2c3c(cc4c2CCC4)CCC3)cn1 (centres unmarked) [Example 24, N′-cyano-N-((1,2,3,5,6,7-hexahydro-s-indacen-4-yl)carbamoyl)-6-methoxypyridine-3-sulfonimidamide]",34 nM
4,"C=C(C)c1coc(S(=O)(=NC#N)NC(=O)Nc2c3c(cc4c2CCC4)CCC3)c1 (centres unmarked) [Example 36, N′-cyano-N-((1,2,3,5,6,7-hexahydro-s-indacen-4-yl)carbamoyl)-4-(prop-1-en-2-yl)furan-2-sulfonimidamide]",32 nM
5,"CC(C)(O)c1coc(S(=O)(=NC#N)NC(=O)Nc2c3c(cc4c2CCC4)CCC3)c1 (centres unmarked) [Example 39, N′-cyano-N-((1,2,3,5,6,7-hexahydro-s-indacen-4-yl)carbamoyl)-4-(2-hydroxypropan-2-yl)furan-2-sulfonimidamide]",3.3 nM
6,"Cc1ccc(F)c(S(=O)(=NC#N)NC(=O)Nc2c3c(cc4c2CCC4)CCC3)c1 (centres unmarked) [Example 42, N′-cyano-2-fluoro-N-((1,2,3,5,6,7-hexahydro-s-indacen-4-yl)carbamoyl)-5-methylbenzene-sulfonimidamide]",2.4 nM
7,"Cc1cccc(S(=O)(=NC#N)NC(=O)Nc2c3c(cc4c2CCC4)CCC3)n1 (centres unmarked) [Example 53, N′-cyano-N-((1,2,3,5,6,7-hexahydro-s-indacen-4-yl)carbamoyl)-6-methylpyridine-2-sulfonimidamide]",45 nM
8,"N#CN=S(=O)(NC(=O)Nc1c2c(cc3c1CCC3)CCC2)c1ccc(F)cc1 (centres unmarked) [Example 21, N′-cyano-4-fluoro-N-((1,2,3,5,6,7-hexahydro-s-indacen-4-yl)carbamoyl)benzenesulfonimidamide]",62 nM
9,"N#CN=S(=O)(NC(=O)Nc1c2c(cc3c1CCC3)CCC2)c1ccc2c(c1)OCCO2 (centres unmarked) [Example 40, N′-cyano-N-((1,2,3,5,6,7-hexahydro-s-indacen-4-yl)carbamoyl)-2,3-dihydrobenzo[b][1,4]dioxine-6-sulfonimidamide]",13 nM
10,"CC(C)(O)c1ccc(F)c(S(=O)(=NC#N)NC(=O)Nc2c3c(cc4c2CCC4)CCC3)c1 (centres unmarked) [Example 64, N′-cyano-2-fluoro-N-((1,2,3,5,6,7-hexahydro-s-indacen-4-yl)carbamoyl)-5-(2-hydroxypropan-2-yl)benzenesulfonimidamide]",7.7 nM
11,"N#CN=S(=O)(NC(=O)Nc1c2c(cc3c1CCC3)CCC2)c1ccc(C2(O)COC2)cc1 (centres unmarked) [Example 35, N′-cyano-N-((1,2,3,5,6,7-hexahydro-s-indacen-4-yl)carbamoyl)-4-(3-hydroxyoxetan-3-yl)benzenesulfonimidamide]",13 nM
12,"CC(C)(O)c1cncc(S(=O)(=NC#N)NC(=O)Nc2c3c(cc4c2CCC4)CCC3)c1 (centres unmarked) [Example 65, N′-cyano-N-((1,2,3,5,6,7-hexahydro-s-indacen-4-yl)carbamoyl)-5-(2-hydroxypropan-2-yl)pyridine-3-sulfonimidamide]",1.26 nM

# Continued by falling IC50, values first:
row,IC50,Structure (SMILES)
1,63 nM,"N#CN=S(=O)(NC(=O)Nc1c2c(cc3c1CCC3)CCC2)c1cc(F)cc(F)c1 (centres unmarked) [Example 44, N′-cyano-3,5-difluoro-N-((1,2,3,5,6,7-hexahydro-s-indacen-4-yl)carbamoyl)benzenesulfonimidamide]"
2,38 nM,"N#CN=S(=O)(NC(=O)Nc1c2c(cc3c1CCC3)CCC2)c1cccc(F)c1 (centres unmarked) [Example 58, N′-cyano-3-fluoro-N-((1,2,3,5,6,7-hexahydro-s-indacen-4-yl)carbamoyl)benzenesulfonimidamide]"
3,32 nM,"N#CN=S(=O)(NC(=O)Nc1c2c(cc3c1CCC3)CCC2)c1ccc(C(F)(F)F)cc1 (centres unmarked) [Example 29, N′-cyano-N-((1,2,3,5,6,7-hexahydro-s-indacen-4-yl)carbamoyl)-4-(trifluoromethyl)-benzenesulfonimidamide]"
4,27 nM,"N#CN=S(=O)(NC(=O)Nc1c2c(cc3c1CCC3)CCC2)c1cccc(C(O)(C(F)(F)F)C(F)(F)F)c1 (centres unmarked) [Example 43, N′-cyano-3-(1,1,1,3,3,3-hexafluoro-2-hydroxypropan-2-yl)-N-((1,2,3,5,6,7-hexahydro-s-indacen-4-yl)carbamoyl)benzenesulfonimidamide]"
5,23 nM,"COc1ccc(S(=O)(=NC#N)NC(=O)Nc2c3c(cc4c2CCC4)CCC3)cc1 (centres unmarked) [Example 19, N′-cyano-N-((1,2,3,5,6,7-hexahydro-s-indacen-4-yl)carbamoyl)-4-methoxybenzenesulfonimidamide]"
6,23 nM,"N#CN=S(=O)(NC(=O)Nc1c2c(cc3c1CCC3)CCC2)c1ccc(F)cc1F (centres unmarked) [Example 45, N′-cyano-2,4-difluoro-N-((1,2,3,5,6,7-hexahydro-s-indacen-4-yl)carbamoyl)benzenesulfonimidamide]"
7,23 nM,"N#CN=S(=O)(NC(=O)Nc1c2c(cc3c1CCC3)CCC2)c1ccc(Cl)cc1 (centres unmarked) [Example 26, 4-chloro-N′-cyano-N-((1,2,3,5,6,7-hexahydro-s-indacen-4-yl)carbamoyl)benzenesulfonimidamide]"
8,19 nM,"N#CN=S(=O)(NC(=O)Nc1c2c(cc3c1CCC3)CCC2)c1cccs1 (centres unmarked) [Example 51, N′-cyano-N-((1,2,3,5,6,7-hexahydro-s-indacen-4-yl)carbamoyl)thiophene-2-sulfonimidamide]"
9,17 nM,"COc1cccc(S(=O)(=NC#N)NC(=O)Nc2c3c(cc4c2CCC4)CCC3)c1 (centres unmarked) [Example 38, N′-cyano-N-((1,2,3,5,6,7-hexahydro-s-indacen-4-yl)carbamoyl)-3-methoxybenzenesulfonimidamide]"
10,15 nM,"N#CN=S(=O)(NC(=O)Nc1c2c(cc3c1CCC3)CCC2)c1cccc([N+](=O)[O-])c1 (centres unmarked) [Example 18, N′-cyano-N-((1,2,3,5,6,7-hexahydro-s-indacen-4-yl)carbamoyl)-3-nitrobenzenesulfonimidamide]"
11,12 nM,"CC(C)(O)c1ccc(S(=O)(=NC#N)NC(=O)Nc2c3c(cc4c2CCC4)CCC3)cc1 (centres unmarked) [Example 17, N′-cyano-N-((1,2,3,5,6,7-hexahydro-s-indacen-4-yl)carbamoyl)-4-(2-hydroxypropan-2-yl)benzenesulfonimidamide]"
12,5.6 nM,"N#CN=S(=O)(NC(=O)Nc1c2c(cc3c1CCC3)CCC2)c1ccc(Br)s1 (centres unmarked) [Example 37, 5-bromo-N′-cyano-N-((1,2,3,5,6,7-hexahydro-s-indacen-4-yl)carbamoyl)thiophene-2-sulfonimidamide]"
13,4.8 nM,"CC(C)(O)c1ccc(S(=O)(=NC#N)NC(=O)Nc2c3c(cc4c2CCC4)CCC3)s1 (centres unmarked) [Example 41, N′-cyano-N-((1,2,3,5,6,7-hexahydro-s-indacen-4-yl)carbamoyl)-5-(2-hydroxypropan-2-yl)thiophene-2-sulfonimidamide]"
14,4.4 nM,"COc1ccc(S(=O)(=NC#N)NC(=O)Nc2c3c(cc4c2CCC4)CCC3)cc1OC (centres unmarked) [Example 52, N′-cyano-N-((1,2,3,5,6,7-hexahydro-s-indacen-4-yl)carbamoyl)-3,4-dimethoxybenzene-sulfonimidamide]"
15,4 nM,"N#CN=S(=O)(Cc1ccc(C#N)cc1)NC(=O)Nc1c2c(cc3c1CCC3)CCC2 (centres unmarked) [Example 66, N′-cyano-1-(4-cyanophenyl)-N-((1,2,3,5,6,7-hexahydro-s-indacen-4-yl)carbamoyl)-methanesulfonimidamide]"
16,3.5 nM,"N#CN=S(=O)(Cc1ccccc1)NC(=O)Nc1c2c(cc3c1CCC3)CCC2 (centres unmarked) [Example 48, N′-cyano-N-((1,2,3,5,6,7-hexahydro-s-indacen-4-yl)carbamoyl)-1-phenylmethanesulfonimidamide]"
17,3 nM,"CC(C)(O)c1cccc(S(=O)(=NC#N)NC(=O)Nc2c3c(cc4c2CCC4)CCC3)c1 (centres unmarked) [Example 34, N′-cyano-N-((1,2,3,5,6,7-hexahydro-s-indacen-4-yl)carbamoyl)-3-(2-hydroxypropan-2-yl)benzenesulfonimidamide]"
